The target in this assay is T1, human P2X4 (Homo sapiens, UniProt Q99571).
T1 sequence (Q99571 1-388): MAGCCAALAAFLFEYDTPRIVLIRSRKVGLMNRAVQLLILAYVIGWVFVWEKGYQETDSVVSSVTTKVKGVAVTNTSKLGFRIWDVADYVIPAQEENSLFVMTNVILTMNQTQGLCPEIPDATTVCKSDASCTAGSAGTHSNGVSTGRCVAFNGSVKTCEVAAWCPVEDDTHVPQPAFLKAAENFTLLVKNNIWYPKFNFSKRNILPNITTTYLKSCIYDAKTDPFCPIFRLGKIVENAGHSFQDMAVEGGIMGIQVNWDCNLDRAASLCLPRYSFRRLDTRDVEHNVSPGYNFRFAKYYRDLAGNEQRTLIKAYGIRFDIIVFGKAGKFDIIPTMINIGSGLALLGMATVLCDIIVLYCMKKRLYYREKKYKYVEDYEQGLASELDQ
The assay is described as follows: Human P2X4 HEK Cell FLIPR Assay. In kind it is cell-based. The note with it: agonist Bz-ATP at EC80; for Emax: HEK293, HEK293 cells, percentage of maximal inhibition, read-out: Human P2X4 HEK Cells (FLIPR Assay) avg Efficacy [%]; for IC50: HEK293 cells, individual values listed where some fall outside detection range. A digest of the protocol:
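HEK293 cells stably expressing human P2X4, Fluo8-AM loaded 30 min at 37° C, then compound 30 min at room temperature (0.5% DMSO, pH 7.4 buffer with 1.8 mM CaCl2). Bz-ATP at its daily-determined EC80 added; calcium fluorescence read over 120 sec; IC50 from peak RFU normalized to agonist control, triplicates.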

Structures are written as SMILES. “And” between values parts separate entries of the source, which are not always exact repeats. Identical values can stand only once.

Data on 29 compounds can be found in patent US11524938B2, “Aromatic sulfonamide derivatives” (Bayer Pharma Aktiengesellschaft, priority 2016, dated 2022).

As for `NS(=O)(=O)c1c(-c2cnn(C(F)F)c2)ccc(NC(=O)Cc2ccccc2Cl)c1F` [Example 493, 2-(2-Chlorophenyl)-N-{4-[1-(difluoromethyl)-1H-pyrazol-4-yl]-2-fluoro-3-sulfamoylphenyl}acetamide], the Emax was 90% and the half-maximal inhibitory concentration (IC50) is 228 nM.

For the compound `NS(=O)(=O)c1cc(NC(=O)Cc2ccccc2Cl)c(F)cc1-c1cnn(C(F)F)c1` [Example 494, 2-(2-Chlorophenyl)-N-{4-[1-(difluoromethyl)-1H-pyrazol-4-yl]-2-fluoro-5-sulfamoylphenyl}acetamide], the Emax was found to be 94% and the IC50 was 205 nM.

For the compound `CN(C)c1nc(-c2ccc(NC(=O)Cc3ccccc3Cl)cc2S(N)(=O)=O)cs1` [Example 495, 2-(2-Chlorophenyl)-N-{4-[2-(dimethylamino)-1,3-thiazol-4-yl]-3-sulfamoylphenyl}acetamide], the Emax worked out at 75% and the half-inhibitory concentration (IC50) is 128 nM.

Take `NS(=O)(=O)c1cc(NC(=O)Cc2ccccc2Cl)ccc1-c1ccns1` [Example 496, 2-(2-Chlorophenyl)-N-[3-sulfamoyl-4-(1,2-thiazol-5-yl)phenyl]acetamide]: the Emax came to 87% and the half-maximal inhibitory concentration (IC50) amounted to 22 nM.

Consider `CN(C(=O)c1cnn(-c2ccc(NC(=O)Cc3ccccc3Cl)cc2S(N)(=O)=O)c1)C1CC1` [Example 497, 1-(4-{[(2-Chlorophenyl)acetyl]amino}-2-sulfamoylphenyl)-N-cyclopropyl-N-methyl-1H-pyrazole-4-carboxamide], for which the Emax is 97% and the IC50 worked out at 54 nM.

Consider `NS(=O)(=O)c1cc(NC(=O)C(O)c2ccccc2Cl)ccc1-n1cc(C(F)(F)F)cn1` (stereo not shown) [Example 498, 2-(2-Chlorophenyl)-2-hydroxy-N-{3-sulfamoyl-4-[4-(trifluoromethyl)-1H-pyrazol-1-yl]phenyl}ethanamide], for which the Emax came to 50%; the IC50 is 18200 nM and > 25000 nM.

Turning to `NS(=O)(=O)c1cc(NC(=O)Cc2ccccc2Cl)cc(Cl)c1-n1cc(C(F)(F)F)cn1` [Example 499, 2-(2-Chlorophenyl)-N-{3-chloro-5-sulfamoyl-4-[4-(trifluoromethyl)-1H-pyrazol-1-yl]phenyl}acetamide], the Emax came out at 69% and the 50% inhibitory concentration (IC50) is 347 nM.

For `N#Cc1cn(-c2ccc(NC(=O)Cc3ccccc3Cl)cc2S(N)(=O)=O)nc1O` [Example 500, 2-(2-Chlorophenyl)-N-[4-(4-cyano-3-hydroxy-1H-pyrazol-1-yl)-3-sulfamoylphenyl]acetamide], the Emax came out at 40% and the IC50 is over 25000 nM.

As to `NS(=O)(=O)c1cc(NC(=O)Cc2ccccc2Cl)ccc1-n1ncc2cnccc21` [Example 501, 2-(2-Chlorophenyl)-N-[4-(1H-pyrazolo[4,3-c]pyridin-1-yl)-3-sulfamoylphenyl]acetamide], the Emax came out at 92% and the half-inhibitory concentration (IC50) amounted to 3 nM.

On to `Cc1nc(-c2ccc(NC(=O)Cc3ccccc3Cl)cc2S(N)(=O)=O)sc1C` [Example 502, 2-(2-Chlorophenyl)-N-[4-(4,5-dimethyl-1,3-thiazol-2-yl)-3-sulfamoylphenyl]acetamide], for which the Emax amounted to 49% and the IC50 came to 13800 nM.

Regarding `Cc1nc(C)c(-c2ccc(NC(=O)Cc3ccccc3Cl)cc2S(N)(=O)=O)s1` [Example 503, 2-(2-Chlorophenyl)-N-[4-(2,4-dimethyl-1,3-thiazol-5-yl)-3-sulfamoylphenyl]acetamide], the Emax came out at 102% and the half-inhibitory concentration (IC50) was 47 nM.

Take `Cc1ncsc1-c1ccc(NC(=O)Cc2ccccc2Cl)cc1S(N)(=O)=O` [Example 504, 2-(2-Chlorophenyl)-N-[4-(4-methyl-1,3-thiazol-5-yl)-3-sulfamoylphenyl]acetamide]: the Emax is 98% and the half-maximal inhibitory concentration (IC50) was found to be 33 nM.

As to `Nc1cnn(-c2ccc(NC(=O)Cc3ccccc3Cl)cc2S(N)(=O)=O)c1` [Example 505], the Emax was 93% and the IC50 amounted to 131 nM.

For the compound `NS(=O)(=O)c1cc(NC(=O)Cc2ccccc2Cl)ccc1-n1cc(NC(=O)C(F)F)cn1` [Example 506, N-[1-(4-{[(2-Chlorophenyl)acetyl]amino}-2-sulfamoylphenyl)-1H-pyrazol-4-yl]-2,2-difluoroacetamide], the Emax worked out at 91% and the IC50 is 391 nM.

As for `NS(=O)(=O)c1cc(NC(=O)Cc2ccccc2Cl)ccc1-n1cc(NC(=O)CC(F)(F)F)cn1` [Example 507, N-[1-(4-{[(2-Chlorophenyl)acetyl]amino}-2-sulfamoylphenyl)-1H-pyrazol-4-yl]-3,3,3-trifluoropropanamide], the Emax was found to be 86% and the IC50 worked out at 180 nM.

In the case of `C[C@@H]1CC[C@H](C)N1c1cnn(-c2ccc(NC(=O)Cc3ccccc3Cl)cc2S(N)(=O)=O)c1` [Example 511, 2-(2-Chlorophenyl)-N-(4-{4-[(cis)-2,5-dimethylpyrrolidin-1-yl]-1H-pyrazol-1-yl}-3-sulfamoylphenyl)acetamide], the Emax is 60% and the IC50 was found to be 343 nM.

Consider `NS(=O)(=O)c1cc(NC(=O)Cc2ccccc2F)ccc1-n1cc(NCC(F)F)cn1` [Example 514, N-(4-{4-[(2,2-Difluoroethyl)amino]-1H-pyrazol-1-yl}-3-sulfamoylphenyl)-2-(2-fluorophenyl)acetamide], for which the Emax worked out at 102% and the half-inhibitory concentration (IC50) amounted to 106 nM.

As to `NS(=O)(=O)c1cc(NC(=O)Cc2ccccc2Cl)ccc1-n1cc(NCC(F)(F)F)cn1` [Example 515, 2-(2-Chlorophenyl)-N-(3-sulfamoyl-4-{4-[(2,2,2-trifluoroethyl)amino]-1H-pyrazol-1-yl}phenyl)acetamide], the Emax came to 101% and the IC50 was 45 nM.

On to `CC(C)c1cnn(-c2ccc(NC(=O)Cc3ccccc3Cl)cc2S(N)(=O)=O)c1` [Example 516, 2-(2-Chlorophenyl)-N-[4-(4-isopropyl-1H-pyrazol-1-yl)-3-sulfamoylphenyl]acetamide], for which the Emax came out at 68% and the IC50 was 96 nM.

As to `CC(C)c1cnn(-c2ccc(NC(=O)Cc3ccccc3F)cc2S(N)(=O)=O)c1` [Example 517, 2-(2-Fluorophenyl)-N-[4-(4-isopropyl-1H-pyrazol-1-yl)-3-sulfamoylphenyl]acetamide], the Emax was determined as 74% and the IC50 worked out at 187 nM.

Take `NS(=O)(=O)c1cc(NC(=O)Cc2ccccc2Cl)ccc1-n1cc(CC(F)(F)F)cn1` [Example 518, 2-(2-Chlorophenyl)-N-{3-sulfamoyl-4-[4-(2,2,2-trifluoroethyl)-1H-pyrazol-1-yl]phenyl}acetamide]: the Emax worked out at 80% and the IC50 came out at 36 nM.

In the case of `NS(=O)(=O)c1cc(NC(=O)Cc2ccccc2F)ccc1-n1cc(CC(F)(F)F)cn1` [Example 519, 2-(2-Fluorophenyl)-N-{3-sulfamoyl-4-[4-(2,2,2-trifluoroethyl)-1H-pyrazol-1-yl]phenyl}acetamide], the Emax amounted to 82% and the concentration for half-maximal inhibition (IC50) turned out to be 105 nM.

Turning to `NS(=O)(=O)c1cc(NC(=O)Cc2ccccc2Cl)ccc1-c1noc(C2CC2)n1` [Example 520, 2-(2-Chlorophenyl)-N-[4-(5-cyclopropyl-1,2,4-oxadiazol-3-yl)-3-sulfamoylphenyl]acetamide], the Emax was 76% and the half-inhibitory concentration (IC50) came out at 43 nM.

As for `NS(=O)(=O)c1cc(NC(=O)Cc2ccccc2Cl)ccc1-c1nc(C(F)(F)F)no1` [Example 521, 2-(2-Chlorophenyl)-N-{3-sulfamoyl-4-[3-(trifluoromethyl)-1,2,4-oxadiazol-5-yl]phenyl}acetamide], the Emax is 52%; the IC50 was 6.9 µM and 17.2 µM and > 25 µM (4×).

As to `NS(=O)(=O)c1cc(NC(=O)Cc2ccccc2Cl)ccc1-c1nnc(C(F)F)o1` [Example 522, 2-(2-Chlorophenyl)-N-{4-[5-(difluoromethyl)-1,3,4-oxadiazol-2-yl]-3-sulfamoylphenyl}acetamide], the Emax was determined as 87% and the IC50 was determined as 71 nM.

As for `NS(=O)(=O)c1cc(NC(=O)Cc2ccccc2F)ccc1-c1nnc(C(F)F)o1` [Example 523, N-{4-[5-(Difluoromethyl)-1,3,4-oxadiazol-2-yl]-3-sulfamoylphenyl}-2-(2-fluorophenyl)acetamide], the Emax was determined as 89% and the half-inhibitory concentration (IC50) was 149 nM.

In the case of `Cc1nnc(-c2ccc(NC(=O)Cc3ccccc3Cl)cc2S(N)(=O)=O)o1` [Example 524, 2-(2-Chlorophenyl)-N-[4-(5-methyl-1,3,4-oxadiazol-2-yl)-3-sulfamoylphenyl]acetamide], the Emax stood at 87% and the 50% inhibitory concentration (IC50) came out at 322 nM.

For `Cc1nnc(-c2ccc(NC(=O)Cc3ccccc3F)cc2S(N)(=O)=O)o1` [Example 525, 2-(2-Fluorophenyl)-N-[4-(5-methyl-1,3,4-oxadiazol-2-yl)-3-sulfamoylphenyl]acetamide], the Emax stood at 72% and the concentration for half-maximal inhibition (IC50) is 5170 nM.

For the compound `Cc1ccc(CC(=O)Nc2ccc(-c3nnc(C)o3)c(S(N)(=O)=O)c2)cc1` [Example 526, N-[4-(5-Methyl-1,3,4-oxadiazol-2-yl)-3-sulfamoylphenyl]-2-(4-methylphenyl)acetamide], the Emax worked out at 51% and the IC50 amounted to 331 nM.

As a reminder, the IC50 is the concentration that gives 50% inhibition. A higher IC50 goes with weaker potency.
